Key:
[1] = test system: LPS-induced acute lung injury rats; test: LPS-induced acute lung injury, lung histopathology (H&E); assay type: in vivo, rat
Protocol: The study was designed to evaluate the direct impact of an Aloe-based composition (UP360) made in the Example 9 in alleviating LPS-induced acute lung injury administered orally at 500 mg/kg and 250 mg/kg. […] In this study, we treated rats with the test materials orally for 7 days before model induction with LPS. On the 8th day, an hour after oral treatment, LPS was instilled intratracheally (i.t.) at 10 mg/kg dissolved in 0.1 mL/100 g PBS to each rat. The normal control rats received the same volume i.t. PBS only.
We sacrificed surviving animals 24 hours after intratracheal LPS administration to the rats. At necropsy, collected bronchoalveolar lavage (BAL) by intratracheal injection of 1.5 mL PBS into the right lobe followed by gentle aspiration at least 3 times. Pooled recovered fluid, centrifuged at 1500 rpm for 10 min at 4 ° C., and was used to measure cytokines (e.g. IL-6) and pulmonary protein levels. This same right lobe was collected for tissue homogenization from each rat for MIP-2/CINC-3 protein analysis. The left lobe was fixed with formalin and submitted for histopathology evaluation to Nationwide Histology for analysis by a certified pathologist. Serum collected at necropsy was used to measure cytokines such as TNF-α and IL-1β.
The left lobe of the lung was used for the histopathology analysis.

LPS-induced septic mice = test: LPS induced sepsis model, survival/mortality rate; assay type: in vivo, mouse; conditions: for # of Death after LPS: cumulative; for Number of deceased animals post LPS: per interval
Protocol: CD-1 mice were purchased from a USDA approved vendor. Male CD-1 mice at 8 weeks old were purchased form Charles River Laboratories, Inc. (Wilmington, Mass.). Animals were acclimated upon arrival and used for the study at the age of 11 weeks. At the time of the study animals average weigh 33.6±2.4 grams. They were housed in a temperature-controlled room (71-72° F.) on a 12-hour light-dark cycle and provided with feed and water ad libitum.
This model used a survival/mortality rate of animals as the end point measurement (Wang et al., 1999). LPS, an exogenous assault trigger, is an integral component of the outer membrane of gram-negative bacteria and a major contributing factor in the initiation of a generalized inflammatory process that could lead to endotoxic shock. It is a state mediated principally by macrophages/monocytes attributed to excessive production of several early phase cytokines such as TNF, IL-1, IL-6 and gamma interferon as well as a late stage mediator HMGB1. Following median lethal dose of LPS (25 mg/kg) administration dissolved in Phosphate buffered saline (PBS; Lifeline, Lot #07641), animals develop endotoxemia and HMGB1 would be detected in the serum at 8 hours and reach to a peak and plateau levels from 16 to 32 hours after LPS. If untreated, mice would start to die within 24 hours. In the current study, we monitored the mice for 4 days after LPS injection. The survival/mortality rate compared LPS +Sodium butyrate (SB; Aldrich, St. Louis, Mo.; lot #MKCG7272), LPS+Vehicle (0.5% CMC; Spectrum, New Brunswick, N.J.; lot #1IJ0127) and LPS+UP360 (Aloe based composition comprising polysaccharides and polyphenols made in Example 9). The following groups were included in the study:
In this model, mice were pretreated with UP360 illustrated in the Example 9 for a week (7 days) before lethal dose intraperitoneal injection of LPS (E. coli, 055:B5; Sigma, St. Louis, Mo.; Lot #081275) at 25 mg/kg with a 10 mL/kg PBS volume. Animals were observed hourly. Given the fact that Sodium butyrate improved LPS-induced injury in mice through suppression of HMGB1 release, we chose this compound as a positive control for our study (Li et al., 2018).
Male CD-1 mice (n=13) were treated with Aloe, Poria, and Rosmarinic acid (RA) utilized for making UP360 in Example 9 at 150 mg/kg, 300 mg/kg and 50 mg/kg, respectively, for 7 days before LPS injection. On the 8th day, mice were injected with 25 mg/kg LPS dissolved in PBS at 10 mL/kg intraperitoneally. Mice in the UP360-treated group received a daily dose of UP360 at 500 mg/kg. All mice continued to receive the respective treatment daily for the duration of the study. Following median lethal dose of LPS (25 mg/kg) i.p. administration, animals are expected to develop sepsis within a few hours. If untreated, mice would start to die within 24 hours. Animals were observed hourly. In the current study, we monitored the mice for 6 days after LPS injection. The survival rate compared LPS+Sodium butyrate (SB), LPS+Vehicle (0.5% CMC), LPS+UP360, LPS+Aloe, LPS+Poria and LPS+Rosmarinic acid. Normal control animals received only PBS intraperitoneally and gavaged only with the carrier vehicle 0.5% CMC. Given the fact that Sodium butyrate (SB) improved LPS-induced injury in mice through suppression of HMGB1 release, we chose this compound as a positive control for our study (Li et al., 2018).
The survival rate and mortality rate of the contemplated Aloe-based compositions, including UP360, comprising and, in some embodiments, consisting of polysaccharides and polyphenols was compared with those dosages of individual extracts as they appear in the formulation to find out potential additive, antagonist or synergistic effects in combination using Colby's equation (Colby, 1967). For the blending of these plant extracts to have unexpected synergy, the observed inhibition needs to be greater than the calculated value.

[2] = n=13 study, doses as E61, 24 hr
[3] = n=13 study, doses as E61, 36 hr
[4] = n=13 study, doses as E61, 48 hr
[5] = n=13 study, doses as E61, 60 hr
[6] = n=13 study, doses as E61, 72 hr
[7] = n=13 study, doses as E61, 96 hr
[8] = n=13 study, doses as E61, 120 hr
[9] = n=13 study, doses as E61, 144 hr

CCCC(=O)[O-].[Na+] [Sodium Butyrate]
Infiltration of PMC ([1]; score 0-4, 500 mg/kg): 2.75 ± 0.78
Pulmonary Edema ([1]; score 0-4, 500 mg/kg): 2.35 ± 0.95
Overall lung tissue Severity ([1]; score 0-4, H&E left lobe, 500 mg/kg): 3.05 ± 0.42
# of Death after LPS (LPS-induced septic mice; CD-1 mice n=8, LPS 25 mg/kg i.p., 500 mg/kg oral from 7 days before, 24 hr): 2
Number of deceased animals post LPS (LPS-induced septic mice; CD-1 mice n=13, LPS 25 mg/kg i.p., oral UP360/SB 500, Aloe 150, Poria 300, RA 50 mg/kg, 24 hpi): 2
MR (%) (LPS-induced septic mice; mortality rate, n=13 study, doses as E49, end of study): 69.2%
# of Death after LPS, Total (LPS-induced septic mice; n=8, LPS 25 mg/kg i.p., 500 mg/kg oral): 4
survival rate (LPS-induced septic mice; n=8, LPS 25 mg/kg i.p., 500 mg/kg oral, 24 hours after LPS): 75%
survival rate (LPS-induced septic mice; n=8, LPS 25 mg/kg i.p., 500 mg/kg oral, 34 hours after LPS): 62.5%
survival rate (LPS-induced septic mice; n=8, LPS 25 mg/kg i.p., 500 mg/kg oral, 48 hours after LPS): half of the animals were deceased
survival rate (LPS-induced septic mice; n=8, LPS 25 mg/kg i.p., 500 mg/kg oral, 72 hours after LPS): 50%
# of Death after LPS (LPS-induced septic mice; n=8, LPS 25 mg/kg i.p., 500 mg/kg oral, 32 hr): 3
# of Death after LPS (LPS-induced septic mice; n=8, LPS 25 mg/kg i.p., 500 mg/kg oral, 34 hr): 3
# of Death after LPS (LPS-induced septic mice; n=8, LPS 25 mg/kg i.p., 500 mg/kg oral, 48 hr): 4
# of Death after LPS (LPS-induced septic mice; n=8, LPS 25 mg/kg i.p., 500 mg/kg oral, 58 hr): 4
# of Death after LPS (LPS-induced septic mice; n=8, LPS 25 mg/kg i.p., 500 mg/kg oral, 72 hr): 4
# of Death after LPS (LPS-induced septic mice; n=8, LPS 25 mg/kg i.p., 500 mg/kg oral, 82 hr): 4
Survival rate (%) (LPS-induced septic mice; n=8, LPS 25 mg/kg i.p., 500 mg/kg oral, final (82 hours, same at 96 and 120 hours)): 50%
Survival rate (%) (LPS-induced septic mice; n=13, LPS 25 mg/kg i.p., UP360/Sodium Butyrate 500, Aloe 150, Poria 300, RA 50 mg/kg, 0 hr): 100%
Survived (LPS-induced septic mice; n=13 study, doses as E49, at 144 hpi): 4
Number of deceased animals post LPS (LPS-induced septic mice; n=13 study, doses as E49, 36 hpi): 4
Number of deceased animals post LPS (LPS-induced septic mice; n=13 study, doses as E49, 48 hpi): 1
Number of deceased animals post LPS (LPS-induced septic mice; n=13 study, doses as E49, 60 hpi): 1
Number of deceased animals post LPS (LPS-induced septic mice; n=13 study, doses as E49, 72 hpi): 0
Number of deceased animals post LPS (LPS-induced septic mice; n=13 study, doses as E49, 96 hpi): 1
Number of deceased animals post LPS (LPS-induced septic mice; n=13 study, doses as E49, 120 hpi): 0
Number of deceased animals post LPS (LPS-induced septic mice; n=13 study, doses as E49, 144 hpi): 0
Deceased (LPS-induced septic mice; n=13 study, doses as E49, total over 144 hpi): 9
Mortality rate (%) (LPS-induced septic mice; n=13 study, doses as E61, 0 hr): 0.0%
Mortality rate (%) (LPS-induced septic mice; [2]): 15.4%
Survival rate (%) (LPS-induced septic mice; [2]): 84.6%
Mortality rate (%) (LPS-induced septic mice; [3]): 46.2%
Survival rate (%) (LPS-induced septic mice; [3]): 53.8%
Mortality rate (%) (LPS-induced septic mice; [4]): 53.8%
Survival rate (%) (LPS-induced septic mice; [4]): 46.2%
Mortality rate (%) (LPS-induced septic mice; [5]): 61.5%
Survival rate (%) (LPS-induced septic mice; [5]): 38.5%
Mortality rate (%) (LPS-induced septic mice; [6]): 61.5%
Survival rate (%) (LPS-induced septic mice; [6]): 38.5%
Mortality rate (%) (LPS-induced septic mice; [7]): 69.2%
Survival rate (%) (LPS-induced septic mice; [7]): 30.8%
Mortality rate (%) (LPS-induced septic mice; [8]): 69.2%
Survival rate (%) (LPS-induced septic mice; [8]): 30.8%
Mortality rate (%) (LPS-induced septic mice; [9]): 69.2%
Survival rate (%) (LPS-induced septic mice; [9]): 30.8%
SR (%) (LPS-induced septic mice; survival rate, n=13 study, doses as E49, end of study): 30.8%

Reference: patent US20220016196A1, “Aloe Based Compositions Comprising Polysaccharides and Polyphenols for Regulation of Homeostasis of Immunity” (Unigen, Inc., priority 2020, published 2022)
